# Source: ChEMBL document CHEMBL1201862, “PubChem BioAssay data set” (2004)
# Activity calls are given as the source filed them.
# Key:
# [1] = molecular target: Voltage-dependent T-type calcium channel subunit alpha-1H (Homo sapiens, UniProt O95180); format: functional;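 note: channel activity triggered by adding a high calcium stimulation buffer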
# [2] = viability of uninfected HEp-2 cells – cell-based, HTS, cytotoxicity control for RSV inhibitor project, dose response (AID 2410); format: functional; conditions: human respiratory syncytial virus
# [3] = molecular target: T1, E3 ubiquitin-protein ligase XIAP (Homo sapiens, UniProt P98170); experiment: small molecules displacing peptide from XIAP – biochemical, IAP family, fluorescence polarization (AID 1018); format: functional
# T1 sequence (P98170 whole entry): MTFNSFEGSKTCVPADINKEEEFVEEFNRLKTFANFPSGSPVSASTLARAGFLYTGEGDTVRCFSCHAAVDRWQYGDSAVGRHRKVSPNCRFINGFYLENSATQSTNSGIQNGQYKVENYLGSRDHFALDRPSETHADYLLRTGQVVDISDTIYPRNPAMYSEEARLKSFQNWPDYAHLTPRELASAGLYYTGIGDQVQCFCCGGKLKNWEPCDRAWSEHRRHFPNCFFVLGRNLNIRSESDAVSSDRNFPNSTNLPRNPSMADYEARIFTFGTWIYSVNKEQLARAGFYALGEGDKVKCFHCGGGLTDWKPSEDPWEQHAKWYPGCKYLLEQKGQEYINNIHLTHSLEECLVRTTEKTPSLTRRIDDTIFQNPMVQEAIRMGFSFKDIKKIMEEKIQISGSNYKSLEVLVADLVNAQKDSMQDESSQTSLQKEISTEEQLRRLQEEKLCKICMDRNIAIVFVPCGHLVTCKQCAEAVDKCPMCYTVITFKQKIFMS
# [4] = molecular target: T1, E3 ubiquitin-protein ligase XIAP; experiment: Counter Screen using XIAP-Bir3 for Chemical Antagonists of Bir1/2 domains of IAP-family anti-apoptotic proteins. [Related pubchem assays (depositor defined):AID1018, AID1449, AID1514, AID1638, AID1749, AID1750, AID488957, AID488963]
# [5] = molecular target: Heat shock protein HSP 90-alpha (Homo sapiens, UniProt P07900); format: functional, organism-based
# Leucine aminopeptidase = molecular target: T2, Leucine aminopeptidase (Plasmodium falciparum 3D7, UniProt Q8IL11); experiment: P. falciparum M17LAP inhibitors, primary screen, biochemical, fluorogenic H-Leu-NHMec substrate, 1536-well (AID 1619); format: functional
# T2 sequence (Q8IL11 whole entry): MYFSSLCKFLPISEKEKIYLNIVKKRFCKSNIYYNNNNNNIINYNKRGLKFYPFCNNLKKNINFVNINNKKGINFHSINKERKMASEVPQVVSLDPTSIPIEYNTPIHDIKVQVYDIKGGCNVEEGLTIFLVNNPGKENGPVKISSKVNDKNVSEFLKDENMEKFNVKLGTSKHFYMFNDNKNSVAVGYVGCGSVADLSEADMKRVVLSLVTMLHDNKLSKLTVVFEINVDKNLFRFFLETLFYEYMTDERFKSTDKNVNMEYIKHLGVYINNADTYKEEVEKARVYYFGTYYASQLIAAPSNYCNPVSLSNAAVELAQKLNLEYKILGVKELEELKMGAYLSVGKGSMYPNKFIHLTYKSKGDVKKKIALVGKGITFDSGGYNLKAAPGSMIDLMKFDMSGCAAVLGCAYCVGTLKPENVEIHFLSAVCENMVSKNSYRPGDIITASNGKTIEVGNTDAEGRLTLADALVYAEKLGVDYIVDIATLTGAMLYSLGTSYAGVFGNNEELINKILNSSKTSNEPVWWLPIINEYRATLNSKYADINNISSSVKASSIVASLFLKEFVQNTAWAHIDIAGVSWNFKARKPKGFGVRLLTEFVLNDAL
# Vero [6] = experiment: cells; format: functional; conditions: Chlorocebus sabaeus
# [7] = molecular target: T3, High affinity choline transporter 1 (Homo sapiens, UniProt Q9GZV3); experiment: human choline transporter blockers, potency – cell-based, 5-point CRC, membrane potential dye, dose response (AID 504840); format: functional
# T3 sequence (Q9GZV3 whole entry): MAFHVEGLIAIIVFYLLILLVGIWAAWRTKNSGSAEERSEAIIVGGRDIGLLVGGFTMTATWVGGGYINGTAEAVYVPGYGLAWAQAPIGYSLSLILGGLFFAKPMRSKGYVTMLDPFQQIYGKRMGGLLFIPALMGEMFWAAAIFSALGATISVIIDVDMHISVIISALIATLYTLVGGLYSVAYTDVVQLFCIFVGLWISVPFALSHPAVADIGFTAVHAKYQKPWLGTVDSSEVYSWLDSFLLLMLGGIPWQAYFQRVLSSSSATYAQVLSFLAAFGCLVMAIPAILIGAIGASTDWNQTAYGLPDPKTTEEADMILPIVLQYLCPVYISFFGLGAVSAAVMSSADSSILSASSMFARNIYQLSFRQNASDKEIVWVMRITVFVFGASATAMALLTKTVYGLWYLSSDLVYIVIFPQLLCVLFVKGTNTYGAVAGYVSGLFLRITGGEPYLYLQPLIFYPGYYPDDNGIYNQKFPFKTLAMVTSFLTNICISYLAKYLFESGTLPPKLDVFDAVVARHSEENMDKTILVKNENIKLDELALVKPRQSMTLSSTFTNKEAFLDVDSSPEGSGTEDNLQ
# [8] = NIH-3T3 fibroblast cytotoxicity, dose response, cytotoxicity control, cell-based, fluorescence, Alamar Blue, secondary assay (AID 2327); format: functional;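 note: NIH-3T3 mouse fibroblasts cultured with fluconazole at 8 µg/mL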
# Vero [9] = experiment: cells; format: functional, cell-based; conditions: Chlorocebus sabaeus
# [10] = molecular target: T4, Short transient receptor potential channel 4 (Mus musculus, UniProt Q9QUQ5); experiment: calcium entry via TRPC4 opening agents – cell-based, HEK293 TRPC4/mu-opioid, Fluo-4 calcium, dose response (AID 434937); format: functional
# T4 sequence (Q9QUQ5 whole entry): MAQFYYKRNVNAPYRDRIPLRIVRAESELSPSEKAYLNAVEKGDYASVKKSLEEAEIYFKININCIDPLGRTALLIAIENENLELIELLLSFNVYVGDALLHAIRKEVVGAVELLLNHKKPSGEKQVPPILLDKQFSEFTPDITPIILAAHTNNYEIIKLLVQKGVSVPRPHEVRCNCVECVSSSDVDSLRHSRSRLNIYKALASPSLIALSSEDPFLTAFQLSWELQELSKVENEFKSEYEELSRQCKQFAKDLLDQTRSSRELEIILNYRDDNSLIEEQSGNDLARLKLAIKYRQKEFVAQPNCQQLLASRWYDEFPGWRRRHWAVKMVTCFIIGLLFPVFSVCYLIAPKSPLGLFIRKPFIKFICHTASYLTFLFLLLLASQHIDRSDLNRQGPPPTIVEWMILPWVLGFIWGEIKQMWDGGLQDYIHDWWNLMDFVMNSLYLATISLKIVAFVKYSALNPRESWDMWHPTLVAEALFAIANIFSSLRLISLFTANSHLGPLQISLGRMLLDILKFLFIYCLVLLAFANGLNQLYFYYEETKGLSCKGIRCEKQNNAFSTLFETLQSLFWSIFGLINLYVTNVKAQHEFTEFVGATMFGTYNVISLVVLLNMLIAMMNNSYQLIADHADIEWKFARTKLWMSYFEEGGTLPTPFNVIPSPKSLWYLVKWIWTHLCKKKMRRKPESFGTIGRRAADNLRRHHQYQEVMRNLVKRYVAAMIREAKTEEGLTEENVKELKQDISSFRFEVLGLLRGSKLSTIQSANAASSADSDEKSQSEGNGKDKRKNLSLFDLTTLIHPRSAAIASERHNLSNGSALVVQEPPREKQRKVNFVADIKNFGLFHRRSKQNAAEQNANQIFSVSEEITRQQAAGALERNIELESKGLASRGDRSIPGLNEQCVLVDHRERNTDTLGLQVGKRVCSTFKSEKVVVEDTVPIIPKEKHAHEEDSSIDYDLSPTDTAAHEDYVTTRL
# [11] = fluconazole-exposed Candida albicans growth modulators – fluorescence, retest, confirmation (AID 2467); format: functional, cell-based
# [12] = molecular target: Eukaryotic translation initiation factor 4E (Mus musculus, UniProt P63073); experiment: blockers of eIF4G binding by eIF4E – biochemical, TR-FRET, dose response (AID 855); format: functional;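 note: potency for disrupting eIF4E binding to eIF4GI seen as loss of FRET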
# Eukaryotic translation initiation factor 4E, sequence (P63073 whole entry): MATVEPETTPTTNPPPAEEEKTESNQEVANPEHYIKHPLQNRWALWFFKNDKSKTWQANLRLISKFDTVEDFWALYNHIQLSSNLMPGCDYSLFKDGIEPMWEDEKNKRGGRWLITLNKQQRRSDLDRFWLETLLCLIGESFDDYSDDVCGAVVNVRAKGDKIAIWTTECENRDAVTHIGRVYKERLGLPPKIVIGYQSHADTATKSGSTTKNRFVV
# [13] = molecular target: T5, Ubiquitin-conjugating enzyme E2 N (Homo sapiens, UniProt P61088); format: functional;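 note: Dose-response confirmation in a TR-FRET assay detecting UBC13-driven polyubiquitin chain formation, inhibition measured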
# T5 sequence (P61088 whole entry): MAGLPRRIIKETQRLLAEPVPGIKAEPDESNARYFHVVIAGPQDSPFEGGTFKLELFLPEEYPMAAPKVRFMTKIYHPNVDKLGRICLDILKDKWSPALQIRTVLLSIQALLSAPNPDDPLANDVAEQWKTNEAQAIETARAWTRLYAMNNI
# Bcl-2-related protein A1 = molecular target: T6, Bcl-2-related protein A1 (Mus musculus, UniProt Q07440); format: functional;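 note: confirmatory dose–response counterscreen on Bfl-1, used to check hits from a UBC13 polyubiquitin inhibitor campaign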
# T6 sequence (Q07440 whole entry): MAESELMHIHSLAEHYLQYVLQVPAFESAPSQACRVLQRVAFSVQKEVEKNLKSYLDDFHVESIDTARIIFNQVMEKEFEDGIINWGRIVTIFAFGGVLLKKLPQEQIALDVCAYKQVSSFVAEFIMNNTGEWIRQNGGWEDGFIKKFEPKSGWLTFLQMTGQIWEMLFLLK
# [14] = MIN6 cell viability loss – mouse insulinoma, cytotoxicity control, dose response (AID 2122); format: functional;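 note: confirmatory high-throughput counterscreen run to flag cytotoxic compounds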
# [15] = decrease of insulin promoter-GFP reporter – imaging, high-content screening, mouse beta cells (AID 1628); format: functional; conditions: MIN6
# Streptococcus = experiment: GAS UMAA2166 growth inhibition – luminescence, BacTiterGlo, counter-screen for streptokinase expression inhibitor project, dose response (AID 1915); format: functional, organism-based;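 note: potency for reduction of bacterial viability or growth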
# [16] = test system: Streptococcus sp. 'group A'; experiment: Streptococcus pyogenes SK(-)GAS viability under kanamycin – luminescence, BacTiterGlo, confirmation, counter-screen for streptokinase expression inhibitor project, dose response (AID 1900); format: functional, organism-based
# Streptokinase A = molecular target: T7, Streptokinase A (Streptococcus pyogenes serotype M1, UniProt P10520); experiment: viability-normalized secreted streptokinase activity reduction – plasminogen activation absorbance, OD405, dose response (AID 1914); format: functional, Streptococcus pyogenes M1 GAS;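 note: secreted streptokinase activity via plasminogen activation per viability signal from cell pellet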
# T7 sequence (P10520 whole entry): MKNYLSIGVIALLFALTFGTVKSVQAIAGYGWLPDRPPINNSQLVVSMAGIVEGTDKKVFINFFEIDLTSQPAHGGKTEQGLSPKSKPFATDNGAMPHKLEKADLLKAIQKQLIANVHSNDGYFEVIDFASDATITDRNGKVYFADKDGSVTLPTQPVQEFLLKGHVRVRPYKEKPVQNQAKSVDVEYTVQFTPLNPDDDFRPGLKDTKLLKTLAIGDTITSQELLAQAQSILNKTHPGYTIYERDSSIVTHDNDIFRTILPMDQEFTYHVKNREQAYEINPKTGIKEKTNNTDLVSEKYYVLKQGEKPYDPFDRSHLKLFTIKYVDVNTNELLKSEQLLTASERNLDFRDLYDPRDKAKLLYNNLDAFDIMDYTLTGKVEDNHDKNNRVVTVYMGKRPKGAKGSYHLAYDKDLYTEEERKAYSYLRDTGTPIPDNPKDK
# Voltage-dependent T-type calcium channel subunit alpha-1H, sequence (O95180 whole entry): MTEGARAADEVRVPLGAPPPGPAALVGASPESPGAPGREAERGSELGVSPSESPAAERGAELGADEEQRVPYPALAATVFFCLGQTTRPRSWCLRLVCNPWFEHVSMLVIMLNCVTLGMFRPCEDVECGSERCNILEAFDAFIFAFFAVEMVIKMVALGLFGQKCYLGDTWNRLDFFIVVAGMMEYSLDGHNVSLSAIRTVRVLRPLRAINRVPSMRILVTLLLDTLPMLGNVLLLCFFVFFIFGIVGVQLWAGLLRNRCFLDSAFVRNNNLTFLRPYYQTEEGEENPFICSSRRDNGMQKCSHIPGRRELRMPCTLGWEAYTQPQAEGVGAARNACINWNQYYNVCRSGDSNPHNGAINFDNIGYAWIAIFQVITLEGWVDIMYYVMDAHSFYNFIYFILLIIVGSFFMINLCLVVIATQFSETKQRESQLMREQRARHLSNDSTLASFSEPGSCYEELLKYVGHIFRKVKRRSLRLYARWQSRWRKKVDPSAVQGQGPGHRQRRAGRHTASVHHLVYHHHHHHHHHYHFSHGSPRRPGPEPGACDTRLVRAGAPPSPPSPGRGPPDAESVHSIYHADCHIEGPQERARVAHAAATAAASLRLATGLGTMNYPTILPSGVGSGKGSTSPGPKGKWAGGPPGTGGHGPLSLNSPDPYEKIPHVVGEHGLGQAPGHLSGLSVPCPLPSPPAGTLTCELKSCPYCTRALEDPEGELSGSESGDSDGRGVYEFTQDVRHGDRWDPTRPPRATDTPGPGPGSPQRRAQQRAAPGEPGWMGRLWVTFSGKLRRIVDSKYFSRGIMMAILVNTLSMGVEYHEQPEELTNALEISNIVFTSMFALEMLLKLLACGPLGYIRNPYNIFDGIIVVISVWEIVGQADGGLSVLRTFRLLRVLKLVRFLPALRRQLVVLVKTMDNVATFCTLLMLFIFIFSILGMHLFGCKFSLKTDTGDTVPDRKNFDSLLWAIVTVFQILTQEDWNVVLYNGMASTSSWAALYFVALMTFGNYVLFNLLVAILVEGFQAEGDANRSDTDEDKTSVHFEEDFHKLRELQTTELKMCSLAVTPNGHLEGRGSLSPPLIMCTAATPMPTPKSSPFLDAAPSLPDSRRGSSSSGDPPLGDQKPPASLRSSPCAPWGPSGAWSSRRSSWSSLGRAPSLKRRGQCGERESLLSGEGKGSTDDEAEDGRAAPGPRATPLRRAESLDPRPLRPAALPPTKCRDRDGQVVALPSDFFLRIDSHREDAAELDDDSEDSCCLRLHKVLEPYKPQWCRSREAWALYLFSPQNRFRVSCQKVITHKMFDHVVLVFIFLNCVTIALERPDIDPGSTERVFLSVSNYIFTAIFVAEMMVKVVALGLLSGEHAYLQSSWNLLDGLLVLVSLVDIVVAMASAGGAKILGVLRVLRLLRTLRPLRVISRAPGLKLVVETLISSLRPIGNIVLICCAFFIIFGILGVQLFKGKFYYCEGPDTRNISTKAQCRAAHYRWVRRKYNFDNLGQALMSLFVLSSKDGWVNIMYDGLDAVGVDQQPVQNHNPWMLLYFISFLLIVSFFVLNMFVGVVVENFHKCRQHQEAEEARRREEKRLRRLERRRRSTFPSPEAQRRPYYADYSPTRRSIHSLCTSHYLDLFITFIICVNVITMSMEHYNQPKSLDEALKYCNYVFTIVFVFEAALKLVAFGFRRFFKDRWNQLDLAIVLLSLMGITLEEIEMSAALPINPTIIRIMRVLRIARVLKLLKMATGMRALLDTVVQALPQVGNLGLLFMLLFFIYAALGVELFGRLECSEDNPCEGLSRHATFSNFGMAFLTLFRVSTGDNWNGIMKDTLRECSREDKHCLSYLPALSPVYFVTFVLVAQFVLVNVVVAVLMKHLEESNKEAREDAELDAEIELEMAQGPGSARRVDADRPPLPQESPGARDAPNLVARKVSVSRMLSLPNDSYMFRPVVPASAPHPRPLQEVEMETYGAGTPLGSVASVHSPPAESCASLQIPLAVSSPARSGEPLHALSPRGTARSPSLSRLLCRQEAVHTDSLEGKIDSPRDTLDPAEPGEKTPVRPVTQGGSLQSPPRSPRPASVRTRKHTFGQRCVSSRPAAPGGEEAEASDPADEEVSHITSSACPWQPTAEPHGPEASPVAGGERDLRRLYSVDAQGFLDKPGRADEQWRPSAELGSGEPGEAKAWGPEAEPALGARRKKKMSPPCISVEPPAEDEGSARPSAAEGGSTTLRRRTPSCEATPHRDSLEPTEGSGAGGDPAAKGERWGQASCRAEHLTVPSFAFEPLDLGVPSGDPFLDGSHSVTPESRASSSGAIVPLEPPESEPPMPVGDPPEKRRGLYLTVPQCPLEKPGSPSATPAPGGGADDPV
structure (smiles),measurement,setting,value
O=C(CSCC(=O)N1CCN(c2ccccc2)CC1)Nc1nc(-c2ccc(Cl)s2)cs1,EC50,[1],4.28 µM (active)
CSc1nnc(Cn2c(=O)sc3ccccc32)n1-c1cccc(Cl)c1,CC50,[2],> 50 µM (active)
same,IC50,cells,8.48 µM (active)
Cc1cc(C)nc(N2CCCC(C(=O)Nc3cc(F)ccc3C)C2)n1 (stereo unspecified),IC50,[3],> 100 µM (not active)
same,IC50,[4],> 100 µM (inactive)
Cc1cc(CNC(=O)COc2ccccc2)c2ccccc2n1,IC50,[3],> 100 µM (not active)
same,IC50,[4],> 100 µM (inactive)
Cc1cccc(C(=O)NC(=S)NNC(=O)Cc2ccccc2)c1,AC50,[5],4.66 µM (active)
same,IC50,Leucine aminopeptidase,56.6 µM (active)
same,CC50,Vero [6],> 25 µM (active)
same,IC50,[7],13.2 µM (active)
same,EC50,[8],> 150 µM (inactive)
same,IC50,Vero [9],22.7 µM (active)
same,EC50,[10],4.22 µM (active)
same,EC50,[11],1.14 µM (active)
COc1cc(C(=O)NCc2ccc(C(=O)NCC(OC)OC)cc2)cc(OC)c1OC,IC50,[12],50 µM (inactive)
COC(=O)CSc1nnc(-c2cccc(NC(=O)c3ccc(C)cc3)c2)n1C,IC50,[12],> 64 µM (inactive)
N#Cc1ccc(OCC(=O)NNC(=S)NC(=O)C2CC2)cc1,IC50,[13],6.5 µM (active)
same,IC50,Bcl-2-related protein A1,> 20 µM (inactive)
Cc1ccccc1/N=C/C=C1\N(C)c2ccccc2C1(C)C,IC50,[14],5.61 µM (active)
same,IC50,[15],2.44 µM (active)
O=C(N/N=C/c1cc([N+](=O)[O-])cc(Br)c1O)C12CC3CCC(CC(C3)C1)C2,EC50,Streptococcus,19.7 µM (active)
same,CC50,Vero [6],> 25 µM (active)
same,EC50,[16],4.67 µM (active)
same,EC50,Streptokinase A,> 150 µM (not active)
same,EC50,[10],2.99 µM (active)
